# Test results published in patent publication US11053204B2, “Pyrimidinyloxy benzene derivatives as herbicides” (FMC Corporation, priority 2015, dated 2021).
# Experiments:
# Assay type in all cases: in vivo
# [1] = test system: crabgrass, large (large crabgrass, Digitaria sanguinalis); experiment: Test C postemergence, plant response rating; conditions: for Plant response rating, Crabgrass, Large: scale 0 to 100; for Crabgrass, Large plant response rating: scale 0 to 100 (0 no effect, 100 complete control)
# Source text: (§1) Seeds of plant species selected from blackgrass (Alopecurus myosuroides), ryegrass, Italian (Italian ryegrass, Lolium multiflorum), wheat (winter wheat, Triticum aestivum), galium (catchweed bedstraw, Galium aparine), corn (Zea mays), crabgrass, large (large crabgrass, Digitaria sanguinalis), foxtail, giant (giant foxtail, Setaria faberii), johnsongrass (Sorghum halepense), lambsquarters (Chenopodium album), morningglory (Ipomoea coccinea), nutsedge, yellow (yellow nutsedge, Cyperus esculentus), pigweed (Amaranthus retroflexus), ragweed (common ragweed, Ambrosia elatior), soybean (Glycine max), barnyardgrass (Echinochloa crus-galli), oilseed rape (Brassica napus), pigweed, palmer (palmer pigweed, Amaranthus palmeri), waterhemp (common waterhemp, Amaranthus rudis), velvetleaf (Abutilon theophrasti), kochia (Kochia scoparia), surinam grass (Brachiaria decumbens), nightshade (eastern black nightshade, Solanum ptycanthum), wild poinsettia (Euphorbia heterophylla), windgrass (Apera spica-venti), and oat, wild (wild oat Avena fatua), were planted into a blend of loam soil and sand or a silt loam soil and treated preemergence with test chemicals formulated in a non-phytotoxic solvent mixture which included a surfactant.
# (§2) At the same time, plants selected from these crop and weed species and also chickweed (common chickweed, Stellaria media), buckwheat, wild (wild buckwheat, Polygonum convolvulus), wild mustard (Sinapis arvensis), field poppy (Papaver rhoeas), field violet (Viola arvensis), geranium, cutleaf (cutleaf geranium, Geranium dissectum), Canada thistle (Cirsium arvense), and speedwell (bird's-eye speedwell, Veronica persica), were planted in pots containing Sunshine Redi-Earth® planting medium comprising spaghnum peat moss, vermiculite, starter nutrients and dolomitic limestone and treated with postemergence applications of test chemicals formulated in the same manner. Plants ranged in height from 2 to 18 cm (1- to 4-leaf stage) for postemergence treatments. Treated plants and controls were maintained in a greenhouse for 13 to 15 d, after which time all species were compared to controls and visually evaluated. Plant response ratings, summarized in Table C, are based on a scale of 0 to 100 where 0 is no effect and 100 is complete control. A dash (-) response means no test result.
# [2] = test system: ryegrass, Italian (Italian ryegrass, Lolium multiflorum); experiment: Test C postemergence, plant response rating; conditions: for Plant response rating, Ryegrass, Italian: scale 0 to 100; for Ryegrass, Italian plant response rating: scale 0 to 100 (0 no effect, 100 complete control)
# Source text: as §1, §2
# [3] = test system: barnyardgrass (Echinochloa crus-galli); experiment: Test C postemergence, plant response rating; conditions: for Plant response rating, Barnyardgrass: scale 0 to 100; for Barnyardgrass plant response rating: scale 0 to 100 (0 no effect, 100 complete control)
# Source text: as §1, §2
# [4] = test system: giant foxtail (Setaria faberii); experiment: Test A postemergence, visual injury rating; conditions: 0 is no effect, 100 is complete control
# Summary of the method: (§3)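 Scoring: eye-based comparison with untreated controls, 0 for no effect through 100 for complete control, at about day 10. Treatments: directed soil spray preemergence; foliar spray postemergence on 2–10 cm plants at the one- to two-leaf stage. Medium: loam soil with sand.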
# [5] = test system: galium (catchweed bedstraw, Galium aparine); experiment: Test A postemergence, visual injury rating; conditions: 0 is no effect, 100 is complete control
# Summary of the method: as §3
# [6] = test system: ragweed (common ragweed, Ambrosia elatior); experiment: Test A postemergence, visual injury rating; conditions: 0 is no effect, 100 is complete control
# Summary of the method: as §3
# [7] = test system: Italian ryegrass (Lolium multiflorum); experiment: Test A postemergence, visual injury rating; conditions: 0 is no effect, 100 is complete control
# Summary of the method: as §3
# [8] = test system: kochia (Kochia scoparia); experiment: Test A postemergence, visual injury rating; conditions: 0 is no effect, 100 is complete control
# Summary of the method: as §3
# [9] = test system: pigweed (Amaranthus retroflexus); experiment: Test A postemergence, visual injury rating; conditions: 0 is no effect, 100 is complete control
# Summary of the method: as §3
# [10] = test system: wheat (Triticum aestivum); experiment: Test A postemergence, visual injury rating; conditions: 0 is no effect, 100 is complete control
# Summary of the method: as §3
# [11] = test system: blackgrass (Alopecurus myosuroides); experiment: Test A postemergence, visual injury rating; conditions: 0 is no effect, 100 is complete control
# Summary of the method: as §3
# [12] = test system: corn (Zea mays); experiment: Test A postemergence, visual injury rating; conditions: 0 is no effect, 100 is complete control
# Summary of the method: as §3
# [13] = test system: barnyardgrass (Echinochloa crus-galli); experiment: Test A postemergence, visual injury rating; conditions: 0 is no effect, 100 is complete control
# Summary of the method: as §3
smiles,measurement,setting,value
N#CCCOC(=O)c1c(Br)cccc1Oc1ncc(Cl)cn1 [Compound 7],"Plant response rating, Crabgrass, Large",[1]; 16 g ai/ha,5
same,"Plant response rating, Crabgrass, Large",[1]; 31 g ai/ha,5
same,"Crabgrass, Large plant response rating",[1]; 62 g ai/ha,20
same,"Crabgrass, Large plant response rating",[1]; 125 g ai/ha,15
same,"Plant response rating, Ryegrass, Italian",[2]; 16 g ai/ha,10
same,"Plant response rating, Ryegrass, Italian",[2]; 31 g ai/ha,0
same,"Ryegrass, Italian plant response rating",[2]; 62 g ai/ha,30
same,"Ryegrass, Italian plant response rating",[2]; 125 g ai/ha,30
same,"Plant response rating, Barnyardgrass",[3]; 16 g ai/ha,5
same,"Plant response rating, Barnyardgrass",[3]; 31 g ai/ha,5
same,Barnyardgrass plant response rating,[3]; 62 g ai/ha,15
same,Barnyardgrass plant response rating,[3]; 125 g ai/ha,10
same,"Foxtail, Giant plant response rating (0 to 100 scale)",[4]; 125 g ai/ha,50
same,"Foxtail, Giant plant response rating (0 to 100 scale)",[4]; 500 g ai/ha,100
same,Galium plant response rating (0 to 100 scale),[5]; 125 g ai/ha,100
same,Galium plant response rating (0 to 100 scale),[5]; 500 g ai/ha,100
same,Ragweed plant response rating (0 to 100 scale),[6]; 125 g ai/ha,40
same,Ragweed plant response rating (0 to 100 scale),[6]; 500 g ai/ha,90
same,"Ryegrass, Italian plant response rating (0 to 100 scale)",[7]; 125 g ai/ha,20
same,"Ryegrass, Italian plant response rating (0 to 100 scale)",[7]; 500 g ai/ha,70
same,Kochia plant response rating (0 to 100 scale),[8]; 125 g ai/ha,100
same,Kochia plant response rating (0 to 100 scale),[8]; 500 g ai/ha,100
same,Pigweed plant response rating (0 to 100 scale),[9]; 125 g ai/ha,100
same,Pigweed plant response rating (0 to 100 scale),[9]; 500 g ai/ha,100
same,Wheat plant response rating (0 to 100 scale),[10]; 125 g ai/ha,0
same,Wheat plant response rating (0 to 100 scale),[10]; 500 g ai/ha,20
same,Blackgrass plant response rating (0 to 100 scale),[11]; 125 g ai/ha,30
same,Blackgrass plant response rating (0 to 100 scale),[11]; 500 g ai/ha,80
same,Corn plant response rating (0 to 100 scale),[12]; 125 g ai/ha,10
same,Corn plant response rating (0 to 100 scale),[12]; 500 g ai/ha,70
same,Barnyardgrass plant response rating (0 to 100 scale),[13]; 125 g ai/ha,30
same,Barnyardgrass plant response rating (0 to 100 scale),[13]; 500 g ai/ha,90
